Laboratory results taken from ChEMBL document CHEMBL5584314, “Identification of an m6A Natural Inhibitor, Lobeline, That Reverses Lenvatinib Resistance in Hepatocellular Tumors” (J Nat Prod, 2024).
Calls of active or inactive are those of the source. The rule behind the calls is not given here.

How the values were obtained:
[1] = system: Lenvatinib-resistant Huh7/Len; assay: Anticancer activity against human Lenvatinib-resistant Huh7/Len cells assessed as increase in m6A modification in terminator region by MeRIP-m6A -sequencing analysis; type: functional, cell-based
[2] = system: Lenvatinib-resistant Huh7/Len; assay: Antitumor activity against human Lenvatinib-resistant Huh7/Len cells xenografted in BALB/c nude mouse assessed as reduction in METTL3 protein expression at 1.5 mg/kg, ip 5 times per week for 3 weeks by Western blot assay; type: functional, organism-based
[3] = target: N6-adenosine-methyltransferase catalytic subunit (Homo sapiens) (UniProt Q86U44); assay: Inhibition of METTL3 in human Huh-7 cells assessed as down regulation of m6A RNA level at 2 uM incubated for 72 hrs by Dot blot assay; type: cell-based
[4] = target: N6-adenosine-methyltransferase catalytic subunit (Homo sapiens) (UniProt Q86U44); assay: Inhibition of METTL3 in human Lenvatinib-resistant Huh7/Len cells assessed as effect on CTSL mRNA expression level at 2 uM incubated for 72 hrs by RT-PCR analysis; type: cell-based
[5] = target: N6-adenosine-methyltransferase catalytic subunit (Homo sapiens) (UniProt Q86U44); assay: Inhibition of METTL3 in human Lenvatinib-resistant Huh7/Len cells assessed as effect on IFFO1 mRNA expression level at 2 uM incubated for 72 hrs by RT-PCR analysis; type: cell-based
[6] = system: Lenvatinib-resistant Huh7/Len; assay: Inhibition of cell migration in human Lenvatinib-resistant Huh7/Len cells at 5 uM incubated for 48 hrs by transwell assay; type: functional, cell-based
[7] = system: Lenvatinib-resistant Hep3B/Len; assay: Inhibition of cell migration in human Lenvatinib-resistant Hep3B/Len cells at 5 uM incubated for 48 hrs in presence of lenvatinib by transwell assay relative to control; type: functional
[8] = system: Lenvatinib-resistant Huh7/Len; assay: Anticancer activity against human Lenvatinib-resistant Huh7/Len cells assessed as increase in m6A modification in coding region by MeRIP-m6A -sequencing analysis; type: functional, cell-based
[9] = Toxicity in BALB/c nude mouse xenografted with human Lenvatinib-resistant Huh7/Len cells assessed as changes in organ index at 1.5 mg/kg, ip cotreated with lenvatinib 5 times per week for 3 weeks; type: organism-based; conditions: in vivo, 504 h
[10] = Toxicity in BALB/c nude mouse PDX model xenografted with human Lenvatinib-resistant HCC/Len cells assessed as changes in organ index at 1.5 mg/kg, ip cotreated with lenvatinib 5 times per week for 3 weeks; type: organism-based; conditions: in vivo, 504 h
[11] = system: Lenvatinib-resistant Huh7/Len; assay: Inhibition of cell migration in human Lenvatinib-resistant Huh7/Len cells at 5 uM incubated for 48 hrs in presence of lenvatinib by transwell assay relative to control; type: functional
[12] = system: Lenvatinib-resistant Huh7/Len; assay: Antitumor activity against human Lenvatinib-resistant Huh7/Len cells xenografted in BALB/c nude mouse assessed as reduction in Ki-67 protein expression in tumor tissue at 1.5 mg/kg, ip cotreated with lenvatinib 5 times per week for 3 weeks by immunohistochemistry analysis relative to control; type: functional; parameters: scale not given: the % may be the effect or the level left
[13] = target: N6-adenosine-methyltransferase catalytic subunit (Homo sapiens) (UniProt Q86U44); assay: Inhibition of METTL3 in human Lenvatinib-resistant Huh7/Len cells assessed as effect on SLC7A11 mRNA expression level at 2 uM incubated for 72 hrs by RT-PCR analysis; type: cell-based
[14] = system: Lenvatinib-resistant Huh7/Len; assay: Anticancer activity against human Lenvatinib-resistant Huh7/Len cells assessed as increase in GGA motif at m6A site by MeRIP-m6A -sequencing analysis; type: functional, cell-based
[15] = system: Lenvatinib-resistant Hep3B/Len; assay: Inhibition of cell migration in human Lenvatinib-resistant Hep3B/Len cells at 5 uM incubated for 48 hrs by transwell assay; type: functional, cell-based
[16] = target: N6-adenosine-methyltransferase catalytic subunit (Homo sapiens) (UniProt Q86U44); assay: Inhibition of METTL3 in human Lenvatinib-resistant Huh7/Len cells assessed as effect on EZH2 mRNA expression level at 2 uM incubated for 72 hrs by RT-PCR analysis; type: cell-based
Huh-7 = assay: Effect on METTL3 protein expression in human Huh-7 cells at 2 uM incubated for 72 hrs by Western blot analysis; type: functional, cell-based
[17] = target: N6-adenosine-methyltransferase catalytic subunit (Homo sapiens) (UniProt Q86U44); assay: Binding affinity to METTL3 in human Huh-7 cells assessed as thermal stability at 44 to 64 degreeC at 2 uM incubated for 30 mins followed by […] analysis; type: cell-based
[18] = target: N6-adenosine-methyltransferase catalytic subunit (Homo sapiens) (UniProt Q86U44); assay: Inhibition of METTL3 in human Lenvatinib-resistant Huh7/Len cells assessed as effect on CRB3 mRNA expression level at 2 uM incubated for 72 hrs by RT-PCR analysis; type: cell-based
[19] = Toxicity in BALB/c nude mouse xenografted with human Lenvatinib-resistant Huh7/Len cells assessed as changes in body weight at 1.5 mg/kg, ip administered 5 times per week for 3 weeks; type: organism-based; conditions: in vivo, 504 h
[20] = target: N6-adenosine-methyltransferase catalytic subunit (Homo sapiens) (UniProt Q86U44); assay: Inhibition of METTL3 in human Lenvatinib-resistant Huh7/Len cells assessed as effect on TET1 mRNA expression level at 2 uM incubated for 72 hrs by RT-PCR analysis; type: cell-based
[21] = Toxicity in BALB/c nude mouse PDX model xenografted with human Lenvatinib-resistant HCC/Len cells assessed as changes in body weight at 1.5 mg/kg, ip cotreated with lenvatinib 5 times per week for 3 weeks; type: organism-based; conditions: in vivo, 504 h
[22] = target: N6-adenosine-methyltransferase catalytic subunit (Homo sapiens) (UniProt Q86U44); assay: Inhibition of METTL3 in human Lenvatinib-resistant Huh7/Len cells assessed as effect on DEK mRNA expression level at 2 uM incubated for 72 hrs by RT-PCR analysis; type: cell-based
[23] = system: Lenvatinib-resistant Huh7/Len; assay: Antiproliferative activity against human Lenvatinib-resistant Huh7/Len cells assessed as inhibition of cell viability up to 40 uM after 72 hrs by CCK-8 assay; type: functional, cell-based
[24] = system: Lenvatinib-resistant HCC/Len; assay: Antitumor activity against human Lenvatinib-resistant HCC/Len cells xenografted in BALB/c nude mouse model of PDX assessed as reduction in m6A expression in tumor tissue at 1.5 mg/kg, ip cotreated with lenvatinib 5 times per week for 3 weeks by immunohistochemistry analysis relative to control; type: functional, organism-based
[25] = system: Lenvatinib-resistant Huh7/Len; assay: Antiproliferative activity against human Lenvatinib-resistant Huh7/Len cells assessed as inhibition of clone formation ability at 5 uM preincubated for 72 hrs and measured after 7 to 10 days in presence of lenvatinib by crystal violet staining based assay; type: functional, cell-based; conditions: time 10-13 day
[26] = system: Lenvatinib-resistant Huh7/Len; assay: Anticancer activity against human Lenvatinib-resistant Huh7/Len cells assessed as increase in m6A modification in promoter region by MeRIP-m6A -sequencing analysis; type: functional, cell-based
[27] = system: Lenvatinib-resistant Huh7/Len; assay: Antitumor activity against human Lenvatinib-resistant Huh7/Len cells xenografted in BALB/c nude mouse assessed as reduction in m6A level in tumor tissue at 1.5 mg/kg, ip 5 times per week for 3 weeks by immunohistochemistry analysis; type: functional, organism-based
[28] = target: N6-adenosine-methyltransferase catalytic subunit (Homo sapiens) (UniProt Q86U44); assay: Inhibition of METTL3 in human Lenvatinib-resistant Huh7/Len cells assessed as effect on MMP13 mRNA expression level at 2 uM incubated for 72 hrs by RT-PCR analysis; type: cell-based
[29] = system: Lenvatinib-resistant Huh7/Len; assay: Antiproliferative activity against human Lenvatinib-resistant Huh7/Len cells assessed as inhibition of clone formation ability at 5 uM preincubated for 72 hrs and measured after 7 to 10 days by crystal violet staining based assay; type: functional, cell-based; conditions: time 10-13 day
[30] = system: Lenvatinib-resistant Hep3B/Len; assay: Antiproliferative activity against human Lenvatinib-resistant Hep3B/Len cells assessed as inhibition of cell viability up to 40 uM after 72 hrs by CCK-8 assay; type: functional, cell-based
[31] = target: N6-adenosine-methyltransferase catalytic subunit (Homo sapiens) (UniProt Q86U44); assay: Inhibition of METTL3 in human Lenvatinib-resistant Huh7/Len cells assessed as effect on ADAMTS9 mRNA expression level at 2 uM incubated for 72 hrs by RT-PCR analysis; type: cell-based
[32] = target: N6-adenosine-methyltransferase catalytic subunit (Homo sapiens) (UniProt Q86U44); assay: Inhibition of METTL3 in human Lenvatinib-resistant Huh7/Len cells assessed as effect on TIBIM6 mRNA expression level at 2 uM incubated for 72 hrs by RT-PCR analysis; type: cell-based

N6-adenosine-methyltransferase catalytic subunit (Homo sapiens), sequence (Q86U44 whole entry): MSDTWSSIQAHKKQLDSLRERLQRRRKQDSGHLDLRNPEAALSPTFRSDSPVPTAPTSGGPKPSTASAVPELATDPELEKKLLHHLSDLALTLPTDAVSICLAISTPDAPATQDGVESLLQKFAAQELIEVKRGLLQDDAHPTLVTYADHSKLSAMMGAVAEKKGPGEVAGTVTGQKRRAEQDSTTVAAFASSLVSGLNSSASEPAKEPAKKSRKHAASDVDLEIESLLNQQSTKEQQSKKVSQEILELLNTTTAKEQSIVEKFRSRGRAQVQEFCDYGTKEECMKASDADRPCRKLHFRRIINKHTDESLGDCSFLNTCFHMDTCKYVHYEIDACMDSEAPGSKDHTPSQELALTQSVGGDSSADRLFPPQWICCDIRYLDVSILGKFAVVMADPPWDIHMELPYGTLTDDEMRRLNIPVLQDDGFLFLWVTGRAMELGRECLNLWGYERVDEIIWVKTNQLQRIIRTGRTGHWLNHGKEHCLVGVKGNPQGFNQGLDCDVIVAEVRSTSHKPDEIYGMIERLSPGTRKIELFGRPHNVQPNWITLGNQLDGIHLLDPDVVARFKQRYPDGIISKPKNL

## CN1[C@@H](CC(=O)c2ccccc2)CCC[C@H]1C[C@H](O)c1ccccc1 [LOBELINE]
[1]
  Activity: Active
[2]
  Activity: inactive
[3]
  inhibition: Active
[4]
  inhibition: Active
[5]
  inhibition: Active
[6]
  inhibition: inactive
[7]
  inhibition at 5 µM: 42%
[8]
  Activity: Active
[9]
  Activity: Non-Toxic
[10]
  Activity: Non-Toxic
[11]
  inhibition at 5 µM: 42%
[12]
  Activity: 30%
[13]
  inhibition: Active
[14]
  Activity: Active
[15]
  inhibition: inactive
[16]
  inhibition: Active
Huh-7
  Activity: inactive
[17]
  Activity: Active
[18]
  inhibition: Active
[19]
  Activity: Non-Toxic
[20]
  inhibition: Active
[21]
  Activity: Non-Toxic
[22]
  inhibition: Active
[23]
  inhibition: Active
[24]
  Activity: Active
[25]
  inhibition: inactive
[26]
  Activity: Active
[27]
  Activity: Active
[28]
  inhibition: Active
[29]
  inhibition: inactive
[30]
  inhibition: Active
[31]
  inhibition: Active
[32]
  inhibition: Active
